Reference: US5808109A, “Compounds that inhibit complement and/or suppress immune activity” (T Cell Sciences, Inc., priority 1995, dated 1998)
Like-named read-outs stand apart in the source and are kept apart here.

Legend:
[1] = test system: cell surface IL-2R expression; test: Inhibition of cell surface IL-2R expression, PHA-stimulated PBL, flow cytometry; assay type: cell-based; details: PHA 72 h, total cell count 5000
Description: Compounds were tested for their ability to inhibit T cell activation, as indicated by inhibition of cell-surface IL-2R expression. PBL cultures (1.5 ml; 24-well plates) were stimulated with PHA (1 μg/ml) for 72 hours in the absence or presence of varying amounts of compound 11a. Subsequently, the cells were stained using fluorescein isothiocyanate (FITC)-labeled anti-IL-2R antibody (Act-T-Set IL-2R, Cat. No. AA2009, T Cell Sciences, Inc., Cambridge, Mass.) and analyzed by flow cytometry (Ortho System 30) (Table X).

[2] = test system: interleukin-2 receptor (IL-2R) release; test: IL-2R release into supernatant of stimulated PBL cultures (enzyme immunoassay); assay type: cell-based, human; details: stimulated PBL cultures (FIG. 6)
Description: Release of cell surface interleukin-2 receptor (IL-2R) or CD8 antigen from lymphocytes is a correlate of T cell activation (Rubin et al. J. Immunol. 1985, 135, 3172-77; Rubin et al. Fed. proc. 1985 44, 946; Fujimoto, J. et al. J. Exp. Med. 1983, 159, 752-66; Tomkinson, B. et al. 2d Annual Conference on Clinical Immunol. Washington, D.C., Oct. 30, 1987). In some experiments, the level of IL-2R or CD8 protein released into the supernatant of the PBL cultures was assessed by removing aliquots therefrom just prior to pulsing with ^3 H-thymidine. Commercially available enzyme immunoassay kits (CELLFREE™ IL-2R, Cat. No. CK1020, T Cell Sciences, Inc., Cambridge, Mass., or CELL-FREE™ T8/CD8, Cat. No. CK1040, T Cell Sciences) were used to determine the levels of the two analytes.

[3] = test system: human peripheral blood lymphocytes (PBL); test: Inhibition of proliferation of peripheral blood lymphocytes, 3H-thymidine incorporation; assay type: cell-based; details: without stimulant, concentration ranges used in the proliferation assay
C5a production = test: Inhibition of C5a production in human serum (aggregated IgG, RIA); assay type: biochemical; details: concentration inhibiting C5a production 50% relative to control
Description: (§1) The ability to inhibit complement was tested by assaying for specific inhibition of C3a and C5a production. For all experiments, a single human serum pool, to be used as a source of complement, was aliquoted and stored frozen at -70° C. Human IgG was heat-aggregated, aliquoted, and stored frozen at -70° C. For each experiment, serum aliquots were equilibrated at 37° C. with varying concentrations of the compounds tested. The classical complement pathway was initiated by the addition of aggregated human IgG. Control samples containing no IgG were always included. After a fixed reaction time of 10 minutes (determined in an earlier time-course study to provide a convenient time interval during which the production of C5a or C3a is nearly complete, i.e., greater than 90%), the levels of the released complement peptides (C5a or C3a) were determined by radioimmunoassay using commercially available radioimmunoassay (RIA) kits (C5a RIA, UpJohn Cat. No. 3250-02; C3a RIA, UpJohn Cat. No. 3245-01; C5a RIA, Amersham Cat. No. RPA.520; C3a RIA, Amersham RPA.518).
(§2) Since a competitive immunoassay was used, complement peptide (C5a and C3a) concentrations varied inversely with the counts. The Counts Bound (CB) for a sample was defined as the total counts (in counts per minute, cpm) measured in the pellet minus the counts measured in a nonspecific binding (NSB) control. The NSB control was a sample containing only tracer peptide (^125 I-labelled) and second precipitating antiserum; it contained no C5a- or C3a-specific antiserum.
(§3) The y-axis in FIG. 2 represents the fraction inhibition. The fraction inhibition is equal to the Counts Bound (CB) for a "sample," less the CB in the "sample with no added compound," divided by the CB for the "no IgG control" less the CB in the "sample with no added compound." [formula]
(§4) FIG. 2 is representative of the data plots obtained from the assays described above.

C3a production = test: Inhibition of C3a production in human serum (aggregated IgG, RIA); assay type: biochemical; details: human serum, concentration inhibiting C3a production 50% relative to control
Description: as §1, §2, §3, §4

[4] = test system: human peripheral blood lymphocytes (PBL); test: Inhibition of proliferation of peripheral blood lymphocytes, 3H-thymidine incorporation; assay type: cell-based; details: Lymphocyte
Description: The proliferation of human peripheral blood lymphocytes (PBL) in response to phytohemagglutinin (PHA, Well-come) or anti-CD3 monoclonal antibody (OKT-3, Ortho) was assessed by the incorporation of ^3 H-thymidine. Compound 11a was diluted in culture media to the desired concentrations, human PBL were added to a final concentration of 10^6 cells/ml, and then either PHA (Wellcome) or anti-CD3 (OKT3, Ortho) antibody (final concentration, […]) was added to initiate proliferation. The final volume per sample was 100 μl. The cells were incubated for 72 hours after stimulation, pulsed with 1 μCi ^3 H-thymidine per sample for 4 hours, harvested, and counted in a scintillation counter. […] Because cell viability was unaffected by the presence of 11a (see supra), the inhibition apparently was not due to cytotoxic effects.

IL-2R protein release [2]: inhibitor
IC50 (C5a production): 5000 µM
IC50 (C3a production): 22000 µM
Structure (SMILES): COc1ccc(C(=O)O)c2c1CC1(CCCCC1)O2 [Compound 11a, 7-carboxy-4-methoxyspiro[benzofuran-2(3H)-cyclohexane]]
Number of Cells Positive for IL-2R ([1]; 0.44 nM (so in the source)): 913
Percentage Positive ([1]; 0.44 nM (so in the source)): 18.3
Number of Cells Positive for IL-2R ([1]; 1.76 nM (so in the source)): 225
Percentage Positive ([1]; 1.76 nM (so in the source)): 4.5
PBL viability by trypan blue exclusion [3]: viable
IC50 ([4]; PHA stimulated (FIG. 4), read-out: Half-maximal inhibition of PBL proliferation): ~500 µM
IC50 ([4]; Table IX, PHA stimulation, 72 h, read-out: IP50 PHA-stimulated PBL): 400 µM
IC50 ([4]; Table IX, anti-CD3 (OKT-3) stimulation, 72 h, read-out: IP50 OKT-3-stimulated PBL): 500 µM
